{"source": "patent US8771644B2", "about": "“Imaging probes” (Sanofi, priority 2007, dated 2014)", "target": "Cath X (Homo sapiens, UniProt Q9UBR2)", "sequence (Q9UBR2 62-303)": "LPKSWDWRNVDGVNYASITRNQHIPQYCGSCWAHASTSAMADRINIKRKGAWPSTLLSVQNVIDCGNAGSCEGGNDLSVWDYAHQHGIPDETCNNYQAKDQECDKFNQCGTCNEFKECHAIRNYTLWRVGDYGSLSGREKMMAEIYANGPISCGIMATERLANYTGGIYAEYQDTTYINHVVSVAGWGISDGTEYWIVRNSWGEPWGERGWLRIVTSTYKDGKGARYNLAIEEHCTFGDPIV", "test": "in vitro activity assay (fluorescence, substrate cleavage) with Cath X", "format": "biochemical", "conditions": "measurement performed at pH 5.5", "procedure": "[…] The substrates were solved in DMSO and added to enzyme solution with a final concentration of 50 μM.\nFluorescence was measured with an Tecan SAFIRE II spectrometer (excitation wavelength: 336 nm; emission wavelength: 490 nm; excitation band: 10.0 nm; emission band: 10.0 nm; amplification (manual): 90)."}
{"smiles": "CN(C)c1ccc2c(c1)Oc1cc(N(C)C)ccc1C21OC(=O)c2cc(C(=O)NCC[C@H](NC(=O)[C@H](CC3CCCCC3)NC(=O)N3CCOCC3)C(=O)NCCNC(=O)c3ccc(-c4c5ccc(=O)cc-5oc5cc(O)ccc45)c(C(=O)O)c3)ccc21", "note": "[Example 10]", "values": [{"measurement": "Kcat", "result": 287.4, "unit": "s⁻¹"}, {"measurement": "Vmax", "result": 7997, "unit": "nmol/s"}]}
